Patent publication US12305217B2, “Ex vivo protease activity detection for disease detection/diagnostic, staging, monitoring and treatment” (Sunbird Bio, Inc., priority 2020, dated 2025)
Square brackets hold non-standard residues; d marks the D form. Primed or numbered codes have the meaning given here. Ends that are not written are not given here. CPQ2″ = quencher on the Lys side chain; FAM = fluorescent reporter; PEG2′ = not defined here; CPQ2 = quencher

How the values were obtained:
[1] = test system: NASH-related protease activity in K2EDTA plasma (cathepsin L); assay: Inhibitor profiling of Probe #102 cleavage in healthy and NASH plasma; type: biochemical, mice; details: for effect of inhibitor on Probe #102 signal: NASH and healthy plasma
Protocol: For this experiment, all plasma samples were prepared individually and diluted 1/10e in PBS with inhibitor added directly to the samples. Inhibitor was prepared at 15× concentration to final. Substrates were diluted in DI water at 18 uM, such that the final concentration on the plate would be 6 uM. All samples were prepared such that their last dilution on the plate would not affect the desired final concentration. 10 ul of each individual sample was pipetted into their corresponding wells, and the plate was then spun down in the centrifuge at 1500 RPM for 30 seconds to coat the bottom of each well with the sample. 5 ul of the 18 uM substrate solution was pipetted into each well being used on a 384 well plate, and then the plate was spun down in the centrifuge at 1500 rpm for 30 seconds. The plate was placed immediately in the plate reader at 37° C. for a 30-minute-long fluorescence kinetic read at 485/535 extended gain.
To assess the proteolytic cleavage pattern of Probe #102, samples were tested using a pool of broad inhibitors for serine, cysteine, threonine, MMP and aspartic protease family members (broad inhibitor) to assess general protease activity, AEBSF for serine proteases, E64 for cysteine proteases, CTSi for broad cathepsin inhibition of cathepsins L, S, K and B, or specific inhibitors for cathepsin K (L00625), for cathepsin L (SID) or cathepsin B (CA074).

[2] = test system: cathepsin and/or MMP protease activities; assay: Ex vivo probe cleavage in plasma of healthy, NASH regression and NASH progression mice; type: biochemical; details: K2EDTA plasma collected at 20 weeks
Source text: Plasma samples were collected from all animals at 20 weeks.
The probes showing the most differentiation in NASH were linked to cathepsin and/or MMP protease activities.

[3] = test system: proteases in COVID plasma; assay: Ex vivo probe cleavage in COVID and healthy K2EDTA and Lithium Heparin plasma; type: biochemical
[4] = test system: proteases in mouse plasma (caspase activity); assay: Ex vivo probe cleavage in plasma of Jo2 fulminant hepatitis mice; type: biochemical; details: mouse plasma 3 hours after Jo2 injection
Protocol: Fulminant hepatitis is induced after injection intraperitoneal of monoclonal antibody anti-CD95 (Jo2, BD biosciences, 4 ug/animal), and mouse plasma samples were collected 3 hours after Jo2 injection.

[5] = test system: COVID-related proteases in swab samples; assay: Ex vivo probe cleavage in COVID positive and negative swab samples; type: biochemical
Granzyme B = Granzyme B (Homo sapiens, UniProt P10144); assay: Inhibition experiments on Probe #647 signal in COVID swab samples; details: healthy and COVID samples
[6] = test system: carboxylesterase 1, phospholipase A2 and lipoprotein lipase; assay: Spiked recombinant enzymes in human plasma with resorufin oleate as substrate; type: biochemical
[7] = K2EDTA and Lithium Heparin plasma

Granzyme B, sequence (P10144 21-247): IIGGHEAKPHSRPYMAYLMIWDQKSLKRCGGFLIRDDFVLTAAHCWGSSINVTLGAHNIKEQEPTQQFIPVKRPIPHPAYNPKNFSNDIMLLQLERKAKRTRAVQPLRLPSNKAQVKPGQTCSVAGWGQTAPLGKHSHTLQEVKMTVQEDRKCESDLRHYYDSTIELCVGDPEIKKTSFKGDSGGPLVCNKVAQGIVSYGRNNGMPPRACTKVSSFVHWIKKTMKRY

CCCNC(=O)[C@H]1O[C@@H]1C(=O)N[C@H](C(=O)N1CCC[C@H]1C(=O)O)[C@@H](C)CC [CA074]
effect of inhibitor on Probe #102 signal [1]: did not significantly decrease signal

Probe #102: a CTSL sensing probe; fluorescent reporter and quencher peptide probe (chain 1 {FAM}-GKPILFFRLKGK(CPQ2″)[PEG2′]; chain 2 [dK][dK]GC; not fully specified; printed as (FAM)-GKPILFFRLKG-K(CPQ2)-PEG2-kk-GC; also: FAM, place not given here)
protease that the probe responds to ([1]; individual cathepsin inhibitors, FIG. 30D-F): specifically responds to the activity of cathepsin L (CTSL) | differentiation among healthy, regression and NASH samples [2]: can differentiate

Probe #428: probe used in NASH regression experiment (chain 1 {FAM}-GDRRKKLTQGK(CPQ2″)[PEG2′]; chain 2 [dK][dK]GC; not fully specified; printed as (FAM)-GDRRKKLTQG-K(CPQ2)-(PEG2)-; also: FAM, place not given here)
differentiation among healthy, regression and NASH samples [2]: can differentiate

Probe #409: SARS CoV2 coronavirus substrate (SARS-COV2 3C protease) (GTSAVLQSGFRKGK(CPQ2); not fully specified (N-terminus, C-terminus); also: 5-FAM, PEG2-kk-GC)
differential cleavage between COVID and healthy samples ([3]; K2 EDTA samples): modest contrast

CN1CCN(c2nc(-c3ccc(C(=O)NC4(C(=O)NCC#N)CCCCC4)cc3)cs2)CC1 [Probe L006235]
effect of inhibitor on Probe #102 signal [1]: did not significantly decrease signal

Probe #647: Caspase centric probe; signal measures Granzyme B activity (chain 1 GAIEPDSGGK(CPQ2); chain 2 [dK][dK]GC-NH2; not fully specified (N-terminus, C-terminus); also: 5FAM, PEG2, linkage of the two chains not given here)
differentiation between healthy and Jo2 samples [4]: show contrast that is specific and sensitive to the Jo2 model | number of active samples ([5]; COVID+ swab samples): 7 | number of active samples ([5]; COVID- swab samples): 1 | difference between COVID+ and COVID- samples ([5]; swabs in saline, p=0.029): significant differences | differentiation among healthy, regression and NASH samples [2]: can differentiate | protease measured by the probe signal (Granzyme B): measures the activity of protease Granzyme B

Probe #18: Neutrophil elastase substrate (GAAPVGK(CPQ2); not fully specified (N-terminus, C-terminus); also: 5-FAM, PEG2-kk-GC)
differential cleavage between COVID and healthy samples [3, 7]: demonstrated contrast in both sets

Probe #8: Caspase centric probe (chain 1 GVDVADGK; chain 2 KKGC; not fully specified; 5-FAM, CPQ2 quencher, PEG2; Description of Artificial Sequence: Synthetic probe; SITE 8 Lysine modified with a CPQ2 quencher; SITE 1 D-Lysine; SITE 2 D-Lysine)
differentiation between healthy and Jo2 samples [4]: show contrast that is specific and sensitive to the Jo2 model

Resorufin oleate
suitability as substrate for enzyme detection [6]: promising for detection of broad range of enzymes

Probe #12: Caspase centric probe (chain 1 GDEVDGK; chain 2 KKGC; not fully specified; 5-FAM, CPQ2 quencher, PEG2; Description of Artificial Sequence: Synthetic probe; SITE 7 Lysine modified with a CPQ2 quencher; SITE 1 D-Lysine; SITE 2 D-Lysine)
differentiation between healthy and Jo2 samples [4]: show contrast that is specific and sensitive to the Jo2 model

NCCc1ccc(S(=O)(=O)F)cc1 [AEBSF]
decrease of NASH signal ([1]; Probe #102, 6 uM, NASH plasma): 65% | decrease of healthy signal ([1]; Probe #102, 6 uM, healthy plasma): 60%

Probe #84: Furin substrate (GRVKRGLAGK(CPQ2); not fully specified (N-terminus, C-terminus); also: 5-FAM, PEG2-kk-GC)
differential cleavage between COVID and healthy samples [3, 7]: demonstrated contrast in both sets

Probe #492: ex vivo fluorescent probe used in NASH mouse plasma (chain 1 {FAM}-GQRANSIRVTWGK(CPQ2″)[PEG2′]; chain 2 [dK][dK]GC; not fully specified; printed as (FAM)-GQRANSIRVTWG-K(CPQ2)-(PEG2)-; also: FAM, place not given here)
differentiation among healthy, regression and NASH samples [2]: can differentiate

CC(C)C[C@H](NC(=O)[C@H]1O[C@@H]1C(=O)O)C(=O)NCCCCN=C(N)N [Probe E64]
effect of inhibitor on Probe #102 signal [1]: decreased NASH signal significantly

CCCC(=O)O [butyrate]
suitability as substrate for enzyme detection [6]: promising for detection of broad range of enzymes

Probe #462: MMP8 substrate (GKKAKRNALGK(CPQ2); not fully specified (N-terminus, C-terminus); also: FAM, PEG2-DLys-DLys-GC)
differential cleavage between COVID and healthy samples [3, 7]: demonstrated contrast in both sets
